Target: T1, GST-JAK2(808-1132) (Homo sapiens, UniProt O60674)
T1 construct: GST-JAK2(808-1132) is purchased from Invitrogen; purchased Invitrogen (Carlsbad, USA) #4288
Experiment: EPK JAK/TYK-kinase family profiling assay (Caliper mobility shift), JAK2
Format: biochemical
Settings: Caliper mobility shift assay of Example 187, 20 μM ATP, read-out: IC50 with Test in present Example
Text: All four kinases of the JAK/TYK-kinase family are used as purified recombinant GST-fusion proteins, containing the active kinase domains. GST-JAK1(866-1154), GST-JAK3(811-1124), and GST-TYK2(888-1187) are expressed and purified by affinity chromatography. GST-JAK2(808-1132) is purchased from Invitrogen (Carlsbad, USA, #4288).
The kinase assays are based on the Caliper mobility shift assay using the LabChip 3000 systems. This technology is similar to capillary electrophoresis and uses charge driven separation of substrate and product in a microfluidic chip.
All kinase reactions are performed in 384 well microtiter plates in a total reaction volume of 18 μl. The assay plates are prepared with 0.1 μl per well of test compound in the appropriate test concentration, as described under the section “preparation of compound dilutions”. The reactions are started by combining 9 μl of substrate mix (consisting of peptide and ATP) with 9 μl of kinase dilution. The reactions are incubated for 60 minutes at 30° C. and stopped by adding 70 μl of stop buffer (100 mM Hepes, 5% DMSO, 0.1% Coating reagent, 10 mM EDTA, 0.015% Brij 35).
Fluorescently labeled synthetic peptides are used as substrates in all reactions. […] Specific assay conditions are described in Table 1:
The terminated reactions are transferred to a Caliper LabChip 3000 reader (Caliper Life Sciences, Mountain View, Calif., USA) and the turnover of each reaction is measured by determining the substrate/product ratio.
Test compounds are dissolved in DMSO (10 mM) and transferred into 1.4 mL flat bottom or V-shaped Matrix tubes carrying a unique 2D matrix chip by individual compound hubs. The numbers of these chips are distinctively linked to the individual compound identification numbers. The stock solutions are stored at −20° C. if not used immediately. For the test procedure the vials are defrosted and identified by a scanner whereby a working sheet is generated that guides the subsequent working steps.
Compound dilutions are made in 96 well plates. This format enabled the assay of maximally 40 individual test compounds at 8 concentrations (single points) including 4 reference compounds. The dilution protocol includes the production of pre-dilution plates, master plates and assay plates:
Pre-dilution plates: 96 polypropylene well plates are used as pre-dilution plates. A total of 4 pre-dilution plates are prepared including 10 test compounds each on the plate positions A1-A10, one standard compound at A11 and one DMSO control at A12. All dilution steps are done on a Hamilton STAR robot (Hamilton, Co., Reno, Nev., USA).
Master plates: 100 μL of individual compound dilutions including standard compound and controls of the 4 “pre-dilution plates” are transferred into a 384 “master plate” including the following concentrations 1,820, […], 182, 54.6, 18.2, 5.46, 1.82 and 0.546 μM, respectively in 90% of DMSO.
Assay plates: Identical assay plates are then prepared by pipetting 100 nL each of compound dilutions of the master plates into 384-well “assay plates”. In the following the compounds are mixed with 9 μL of assays components plus 9 μL enzyme corresponding to a 1:181 dilution steps enabling the final concentration of 10, 3.0, 1.0, 0.3, 0.1, 0.03, 0.01 and 0.003 μM, respectively. The preparation of the master plates are handled by the Matrix PlateMate Plus robot (Thermo Fisher Scientific, Handforth, Cheshire, United Kingdom) and replication of assay plates by the HummingBird robot (Genomic Solutions, Inc., Ann Arbor, Mich., USA).

T1 sequence (O60674 808-1132): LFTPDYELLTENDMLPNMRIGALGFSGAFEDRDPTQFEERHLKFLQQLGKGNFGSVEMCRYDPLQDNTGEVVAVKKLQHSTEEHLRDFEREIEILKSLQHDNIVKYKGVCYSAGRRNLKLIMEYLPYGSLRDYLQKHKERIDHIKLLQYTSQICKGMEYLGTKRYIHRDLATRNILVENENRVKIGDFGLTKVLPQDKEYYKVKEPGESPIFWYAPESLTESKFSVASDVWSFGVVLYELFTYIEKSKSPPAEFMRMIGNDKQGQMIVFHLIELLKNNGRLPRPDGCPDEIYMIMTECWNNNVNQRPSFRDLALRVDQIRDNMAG

IC50 [nM] | Compound
165 | O=C1CCCN1c1ccc(Nc2nc3cccc(-c4cc(F)c(CN5CCOCC5)c(F)c4)c3o2)cc1 [Example 126, 1-{4-[7-(3,5-Difluoro-4-morpholin-4-ylmethyl-phenyl)-benzooxazol-2-ylamino]-phenyl}-pyrrolidin-2-one]
18 | Cc1cc(Nc2nc3cccc(-c4cc(F)c(CN5CCOCC5)c(F)c4)c3o2)ccc1N1CCN(C2CC2)CC1 [Example 160, [4-(4-Cyclopropyl-piperazin-1-yl)-3-methyl-phenyl]-[7-(3,5-difluoro-4-morpholin-4-ylmethyl-phenyl)-benzooxazol-2-yl]-amine]
< 3 | CCN1CCN(c2ccc(Nc3nc4cccc(-c5ccc(CN6CCS(=O)(=O)CC6)c(F)c5)c4o3)cc2C)CC1 [Example 88, {7-[4-(1,1-Dioxo-1lambda*6*-thiomorpholin-4-ylmethyl)-3-fluoro-phenyl]-benzooxazol-2-yl}-[4-(4-ethyl-piperazin-1-yl)-3-methyl-phenyl]-amine]
21.5 | Cc1cc(-c2cccc3nc(Nc4ccc(N5CCN(C6CC6)CC5)cc4)oc23)ccc1C(=O)N1CCOCC1 [Example 97, (4-{2-[4-(4-Cyclopropyl-piperazin-1-yl)-phenylamino]-benzooxazol-7-yl}-2-methyl-phenyl)-morpholin-4-yl-methanone]
725 | CNS(=O)(=O)c1ccc(-c2cccc3nc(Nc4ccc(C)c(OC)c4)oc23)cc1 [Example 144, 4-[2-(3-Methoxy-4-methyl-phenylamino)-benzooxazol-7-yl]-methyl-benzenesulfonamide]
3.3 | Cc1cc(Nc2nc3cccc(-c4ccc(CC(=O)N5CCS(=O)(=O)CC5)cc4)c3o2)ccc1C(=O)N(C)C [Example 77, 4-(7-{4-[2-(1,1-Dioxo-1lambda*6*-thiomorpholin-4-yl)-2-oxo-ethyl]-phenyl}-benzooxazol-2-ylamino)-2, N,N-trimethyl-benzamide]
4.3 | Cc1cc(Nc2nc3cccc(-c4cc(F)c(CN5CCS(=O)(=O)CC5)c(F)c4)c3o2)ccc1N1CCN(CCN(C)C)CC1 [Example 107, {4-[4-(2-Dimethylamino-ethyl)-piperazin-1-yl]-3-methyl-phenyl}-{7-[4-(1,1-dioxo-1lambda*6*-thiomorpholin-4-ylmethyl)-3,5-difluoro-phenyl]-benzooxazol-2-yl}-amine]
4.5 | Cc1cc(Nc2nc3cccc(-c4ccc(C(=O)N5CCOCC5)c(F)c4)c3o2)ccc1C(=O)N(C)C [Example 78, 4-{7-[3-Fluoro-4-(morpholine-4-carbonyl)-phenyl]-benzooxazol-2-ylamino}-2, N,N-trimethyl-benzamide]
4.35 | Cc1cc(Nc2nc3cccc(-c4cc(F)c(CN5CCS(=O)(=O)CC5)c(F)c4)c3o2)ccc1C(=O)N1CCCC1 [Example 96, (4-{7-[4-(1,1-Dioxo-1lambda*6*-thiomorpholin-4-ylmethyl)-3,5-difluoro-phenyl]-benzooxazol-2-ylamino}-2-methyl-phenyl)-pyrrolidin-1-yl-methanone]
210 | Cc1cc(Nc2nc3cccc(-c4cc(F)c(CN5CCOCC5)c(F)c4)c3o2)ccc1N1CCN(CCC(F)(F)F)CC1 [Example 121]
64 | O=C(c1ccc(-c2cccc3nc(Nc4ccc(N5CCNCC5)cc4)oc23)cc1F)N1CCOCC1 [Example 91, {2-Fluoro-4-[2-(4-piperazin-1-yl-phenylamino)-benzooxazol-7-yl]-phenyl}-morpholin-4-yl-methanone]
180 | CCN1CCN(c2ccc(Nc3nc4ccnc(-c5cc(F)c(CN6CCOCC6)c(F)c5)c4o3)cc2C)CC1 [Example 152, [4-(3,5-Difluoro-4-morpholin-4-ylmethyl-phenyl)-oxazolo[5,4-c]pyridin-2-yl]-[4-(4-ethyl-piperazin-1-yl)-3-methyl-phenyl]-amine]
11 | Cc1cc(Nc2nc3cccc(-c4ccc(C(=O)N5CCS(=O)(=O)CC5)cc4)c3o2)ccc1CN1CCOCC1 [Example 165, (1,1-Dioxo-1lambda*6*-thiomorpholin-4-yl)-{4-[2-(3-methyl-4-morpholin-4-ylmethyl-phenylamino)-benzooxazol-7-yl]-phenyl}-methanone]
6.5 | CN1CCN(c2ccc(Nc3nc4cccc(-c5ccc(C(=O)N6CCOCC6)c(F)c5)c4o3)cc2)CC1 [Example 75, (2-Fluoro-4-{2-[4-(4-methyl-piperazin-1-yl)-phenylamino]-benzooxazol-7-yl}-phenyl)-morpholin-4-yl-methanone]
10.1 | CCN1CCN(c2ccc(Nc3nc4cccc(-c5ccc(S(C)(=O)=O)cc5)c4o3)cc2C)CC1 [Example 92, [4-(4-Ethyl-piperazin-1-yl)-3-methyl-phenyl]-[7-(4-methanesulfonyl-phenyl)-benzooxazol-2-yl]-amine]
14.1 | O=S1(=O)CCN(Cc2c(F)cc(-c3cccc4nc(Nc5ccc(N6CCN(C7CC7)CC6)cc5)oc34)cc2F)CC1 [Example 114, [4-(4-Cyclopropyl-piperazin-1-yl)-phenyl]-{7-[4-(1,1-dioxo-1lambda*6*-thiomorpholin-4-ylmethyl)-3,5-difluoro-phenyl]-benzooxazol-2-yl}-amine]
39 | COCCN1CCN(c2ccc(Nc3nc4cccc(-c5ccc(S(C)(=O)=O)cc5)c4o3)cc2C)CC1 [Example 115, [7-(4-Methanesulfonyl-phenyl)-benzooxazol-2-yl]-{4-[4-(2-methoxy-ethyl)-piperazin-1-yl]-3-methyl-phenyl}-amine]
5.2 | CS(=O)(=O)c1ccc(Nc2nc3cccc(-c4ccc(CC(=O)N5CCOCC5)cc4)c3o2)cc1 [Example 124, 2-{4-[2-(4-Methanesulfonyl-phenylamino)-benzooxazol-7-yl]-phenyl}-1-morpholin-4-yl-ethanone]
7.9 | Cc1cc(Nc2nc3cccc(-c4ccc(C(=O)N5CCOCC5)cc4)c3o2)ccc1C(=O)N(C)C [Example 69, 2,N,N-Trimethyl-4-{7-[4-(morpholine-4-carbonyl)-phenyl]-benzooxazol-2-ylamino}-benzamide]
4.2 | Cc1cc(Nc2nc3cccc(-c4ccc(CN5CCOCC5)c(F)c4)c3o2)ccc1C(=O)N(C)C [Example 64, 4-[7-(3-Fluoro-4-morpholin-4-ylmethyl-phenyl)-benzooxazol-2-ylamino]-2,N,N-trimethyl-benzamide]
13 | Cc1cc(Nc2nc3cccc(-c4ccc(C(=O)N5CCOCC5)cc4F)c3o2)ccc1C(=O)N(C)C [Example 76, 4-{7-[2-Fluoro-4-(morpholine-4-carbonyl)-phenyl]-benzooxazol-2-ylamino}-2,N,N-trimethyl-benzamide]
130 | Cc1cc(Nc2nc3ccnc(-c4cc(F)c(CN5CCS(=O)(=O)CC5)c(F)c4)c3o2)ccc1C(=O)N(C)C [Example 168, 4-{4-[4-(1,1-Dioxo-1lambda*6*-thiomorpholin-4-ylmethyl)-3,5-difluoro-phenyl]-oxazolo[5,4-c]pyridin-2-ylamino}-2,N,N-trimethyl-benzamide]
5.65 | Cc1cc(-c2cccc3nc(Nc4ccc(N5CCN(CCN(C)C)CC5)c(C)c4)oc23)ccc1C(=O)N1CCOCC1 [Example 102, [4-(2-{4-[4-(2-Dimethylamino-ethyl)-piperazin-1-yl]-3-methyl-phenylamino}-benzooxazol-7-yl)-2-methyl-phenyl]-morpholin-4-yl-methanone]
52 | CN1CCN(c2ccc(Nc3nc4cccc(-c5ccc(S(N)(=O)=O)cc5)c4o3)cc2)CC1 [Example 93, 4-{2-[4-(4-Methyl-piperazin-1-yl)-phenylamino]-benzooxazol-7-yl}-benzenesulfonamide]
19.5 | Cc1cc(Nc2nc3cccc(-c4ccc(C(=O)N5CCOCC5)c(F)c4)c3o2)ccc1CN1CCOCC1 [Example 131, {2-Fluoro-4-[2-(3-methyl-4-morpholin-4-ylmethyl-phenylamino)-benzooxazol-7-yl]-phenyl}-morpholin-4-yl-methanone]
